In patent US20220133957A1, “Sclerostin Inhibitors That Promote Bone Morphogenetic Protein Expression” (Emory University, priority 2019, published 2022):

T1: sclerostin and LRP5 interaction (Homo sapiens, UniProt Q9BQB4)
T1 sequence (Q9BQB4 24-213): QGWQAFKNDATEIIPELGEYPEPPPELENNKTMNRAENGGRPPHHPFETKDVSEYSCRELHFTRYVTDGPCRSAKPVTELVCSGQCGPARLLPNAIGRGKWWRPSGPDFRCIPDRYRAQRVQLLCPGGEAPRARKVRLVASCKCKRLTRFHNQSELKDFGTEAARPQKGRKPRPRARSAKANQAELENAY

B1: BMP2: bone morphogenetic protein 2, growth factor used to treat cells (protein, listed as Homo sapiens)
chain: MVAGTRCLLALLLPQVLLGGAAGLVPELGRRKFAAASSGRPSSQPSDEVLSEFELRLLSMFGLKQRPTPSRDAVVPPYMLDLYRRHSGQPGSPAPDHRLERAASRANTVRSFHHEESLEELPETSGKTTRRFFFNLSSIPTEEFITSAELQVFREQMQDALGNNSSFHHRINIYEIIKPATANSKFPVTRLLDTRLVNQNASRWESFDVTPAVMRWTAQGHANHGFVVEVAHLEEKQGVSKRHVRISRSLHQDEHSWSQIRPLLVTFGHDGKGHPLHKREKRQAKHKQRKRLKSSCKRHPLYVDFSDVGWNDWIVAPPGYHAFYCHGECPFPLADHLNSTNHAIVQTLVNSVNSKIPKACCVPTELSAISMLYLDENEKVVLKNYQDMVVEGCGCR

Experiments:
[1] = biological target: T1, sclerostin and LRP5 interaction; test: in vitro binding assay with purified recombinant sclerostin and LRP5 proteins (125-Iodine-labeled sclerostin, biotin-labeled LRP5 pull-down); settings: 0.1 ug biotin-labeled LRP5, 20,000 cpm 125-Iodine-labeled sclerostin, 30 min at room temperature
Description: (§1) To ensure that sclerostin was in fact being expressed in cell lines, we tested C2C12, MSC and MC3T3 cell lines. Western blots were performed using anti-sclerostin mAbs both with and without BMP-2 treatment. […] Sclerostin and LRP5 was labeled with 125-Iodine and biotin, respectively. Constant amounts of biotin-labeled LRP5 (0.1 ug) and 125-Iodine-labeled sclerostin (20,000 cpm) were incubated with or without varying concentrations of unlabeled-sclerostin+/−various concentrations of compounds for 30 min at room temperature in a 100 uL assay buffer. Biotin-labeled LRP5 was pulled down with a 20 uL slurry of neutravidin-agarose beads. The counts associated with pellets were counted in a Beckman 4000 Gamma counter. Unlabeled sclerostin competed off about 90% of labeled-sclerostin.

[2] = system: AXIN2, Wnt1 and SOST mRNA; test: BMP-2-induced marker gene expression in Wnt pathway (mRNA levels) in MC3T3 cells; format: cell-based; settings: 10 uM compound, BMP-2 35 ng/ml, MC3T3 cells treated for 48 hrs
Sprague-Dawley rats = test: in vivo subcutaneous ectopic mineralization model (collagen sponge implant); design: species or system rat; settings: 4 weeks; for dose-response of ectopic mineralization: 10, 25, 50, 75 and 100 mM on collagen sponge; for de novo ectopic mineralization: standalone agent on plain collagen sponge, 0-100 mM, subcutaneous on chest
Description: Compound was delivered in 100 uL at indicated concentration for each collagen disc in DMSO solvent before subcutaneous implantation.
Sclerostin inhibitors were tested in a challenging in vivo subcutaneous ectopic mineralization model. Other than the osteoinductive BMPs, few if any proteins or small molecules are capable of inducing de novo ectopic mineralization in this rat model. Sclerostin inhibitors were loaded individually as standalone agents onto a plain collagen sponge (DSM) at 0, 10, 25, 50, 75, and 100 mM and then surgically implanted subcutaneously on the chest of 6-week-old male Sprague-Dawley rats for 4 weeks. A positive control of 10 μg of recombinant BMP-2 was also tested.

[3] = system: rabbit posterolateral spine fusion; test: rabbit model of posterolateral lumbar arthrodesis (spinal fusion); format: in vivo; settings: for spinal fusion rates compared to controls: 300 mM; for spinal fusion rates compared to controls / spines successfully fused: 6 weeks; for spines successfully fused: 500 mM as standalone drug on plain collagen sponge without ICBG; for posterolateral spine fusion rate: 500 mM in combination with autologous iliac crest bone graft (ICBG), 6 weeks after arthrodesis
Description: Coronal μCT reconstructions of rabbit spines 6 weeks following posterolateral spine arthrodesis are shown.
C07 and VA1 were assessed for their ability to enhance spinal fusion rates in vivo using a validated rabbit model of posterolateral lumbar arthrodesis. Both were tested as standalone osteoinductive drugs, as well as in combination with autologous ICBG, using two separate doses (300 and 500 mM). All rabbits were euthanized six weeks following arthrodesis surgery and the spine fusion masses were assessed by both plain radiography and μCT. Successful fusion, defined as continuous bridging bone between the TPs, was assessed by two spine surgeons.

[4] = biological target: purified recombinant LRP5; test: radioligand competition pull-down: 125I-sclerostin and biotin-LRP5, neutravidin-agarose beads, gamma counting; competitor unlabeled sclerostin
Sclerostin protein = test: Western blots using anti-sclerostin mAbs with and without BMP-2 treatment; format: cell-based; settings: C2C12, MSC and MC3T3 cell lines
Description: as §1

| Molecule | BMP-induced mRNA levels of AXIN2, Wnt1 and SOST compared to BMP-2 alone control [2] | dose-response of ectopic mineralization (Sprague-Dawley rats) | de novo ectopic mineralization (Sprague-Dawley rats) | spinal fusion rates compared to controls [3] | spines successfully fused [3] [%] | posterolateral spine fusion rate [3] [%] | further results |
| --- | --- | --- | --- | --- | --- | --- | --- |
| Unlabeled sclerostin: purified recombinant sclerostin protein, unlabeled competitor in the LRP5 binding assay |  |  |  |  |  |  | labeled-sclerostin competed off [1]: about 90% |
| N#Cc1ccc(NCCNc2ncccn2)nc1 [Compound C07, 6-((2-(pyrimidin-2-ylamino)ethyl)amino)nicotinonitrile] | elevation | clearer dose-response | significant de novo ectopic mineralization | Neither VA1 nor C07 at 300 mM showed any increase | 33 | 85 |  |
| purified recombinant sclerostin (ligand) |  |  |  |  |  |  | percent of labeled sclerostin competed off [4]: 90% |
| CCCC(CCC)C(=O)O [VA1, valproic acid] | elevation | lack of a clear dose-response | significant de novo ectopic mineralization | Neither VA1 nor C07 at 300 mM showed any increase | 17 | 80 |  |
| B1 |  |  |  |  |  |  | Sclerostin protein levels (Sclerostin protein): increased protein levels |
